As usually defined, the pIC50 is −log10 of the IC50, conventionally taken in molar units.

Consider 17 compounds from PubChem BioAssay AID624167 (Sanford-Burnham Center for Chemical Genomics, 2012).

pIC50: −log10 of the molar value.

Holding throughout (assay): inhibition of PEG-3 promoter-driven reporter – cell-based, HeLa, luciferase, CREF/GAPDH counter-screen panel, dose response (AID 624167)
(In general: A counterscreen serves to expose hits that act by an unwanted route or on another target.)

For assay [1], the target named is PEG-3 (UniProt Q6IN02). The conditions noted are these: HeLa PEG-Prom luciferase reporter, overnight, CREF/GAPDH counter-screens, mean of runs. (In general: Reporter assays use an easily measured gene product as a stand-in for the process of interest.)
Another assay relates to Rat fibroblasts (CREF). The conditions noted are these: CREF/GAPDH counter-screens.
The test system of assay [2] is PEG-3. The conditions noted are these: HeLa PEG-Prom luciferase reporter, overnight, CREF/GAPDH counter-screens.
The mark [3] stands for this setting: run 1, dose range 1, individual replicate IC50 per panel.
Setting [4] is: run 2, dose range 1, individual replicate IC50 per panel.

Chain of PEG-3 (UniProt Q6IN02) (Q6IN02 whole entry, looked up): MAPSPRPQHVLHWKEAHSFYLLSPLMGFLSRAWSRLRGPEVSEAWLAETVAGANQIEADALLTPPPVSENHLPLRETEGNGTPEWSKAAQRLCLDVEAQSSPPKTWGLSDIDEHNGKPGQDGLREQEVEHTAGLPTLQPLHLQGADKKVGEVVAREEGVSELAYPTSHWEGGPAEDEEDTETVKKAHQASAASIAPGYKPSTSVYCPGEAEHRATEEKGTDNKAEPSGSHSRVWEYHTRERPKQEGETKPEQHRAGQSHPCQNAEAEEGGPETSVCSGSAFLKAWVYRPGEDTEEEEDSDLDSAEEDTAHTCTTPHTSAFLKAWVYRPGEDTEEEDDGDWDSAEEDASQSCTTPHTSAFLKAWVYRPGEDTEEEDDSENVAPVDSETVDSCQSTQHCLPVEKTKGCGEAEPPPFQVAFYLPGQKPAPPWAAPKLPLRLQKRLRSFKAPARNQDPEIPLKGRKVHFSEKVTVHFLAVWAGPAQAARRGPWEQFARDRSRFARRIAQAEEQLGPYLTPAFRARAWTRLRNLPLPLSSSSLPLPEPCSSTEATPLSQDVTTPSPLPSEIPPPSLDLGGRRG

`Cc1cc(C)c2nc(NNC(=O)c3ccc(S(=O)(=O)N4CC(C)CC(C)C4)cc3)sc2c1` (configuration not stated): the pIC50 at PEG-3 [1] was 5.29; in the assay on Rat fibroblasts (CREF) (mean of runs), 5.06; with Rat fibroblasts (CREF) (setting [3]) it was 4.86; with Rat fibroblasts (CREF) (setting [4]), 5.47; in the assay with PEG-3 [2] (setting [3]) it was 5.13; in the assay on PEG-3 [2] (setting [4]), 5.52.

Take `O=C(/C=C/c1ccccc1)Nc1cccc(C(=O)O)c1`: the pIC50 on PEG-3 [1] was 5.65; with Rat fibroblasts (CREF) (mean of runs), 5.27; with Rat fibroblasts (CREF) (setting [3]) it was 5.40; in the assay on Rat fibroblasts (CREF) (setting [4]) it was 5.18; in the assay with PEG-3 [2] (setting [3]), 5.75; in the assay with PEG-3 [2] (setting [4]), 5.58.

On to `CC(C)(C)C(=O)Nc1ccc(NC(=O)c2ccco2)nc1`, for which the pIC50 is 5.59 on PEG-3 [1]; 6.36 with Rat fibroblasts (CREF) (mean of runs); 6.65 in the assay with Rat fibroblasts (CREF) (setting [3]); 6.19 in the assay with Rat fibroblasts (CREF) (setting [4]); 5.31 with PEG-3 [2] (setting [3]); 6.61 in the assay with PEG-3 [2] (setting [4]).

For `N=c1n(CCN2CCCCC2)c2ccccc2n1CC(O)c1ccc(Cl)c(Cl)c1` (configuration not stated), the pIC50 was 5.02 on PEG-3 [1]; 4.85 in the assay with Rat fibroblasts (CREF) (mean of runs); 4.87 in the assay on Rat fibroblasts (CREF) (setting [3]); 4.83 with Rat fibroblasts (CREF) (setting [4]); 5.00 in the assay with PEG-3 [2] (setting [3]); 5.06 in the assay on PEG-3 [2] (setting [4]).

Regarding `O=C(O)c1cccc(COc2ccc(CO)cc2Cl)c1`, the pIC50 on PEG-3 [1] is 6.41; in the assay on Rat fibroblasts (CREF) (mean of runs) it was 5.08; with Rat fibroblasts (CREF) (setting [3]), 5.06; with Rat fibroblasts (CREF) (setting [4]), 5.09; in the assay with PEG-3 [2] (setting [3]), 6.69; with PEG-3 [2] (setting [4]) it was 6.24.

For the compound `O=C(COc1ccc(Cl)cc1Cl)Nc1ccccn1`, the pIC50 at PEG-3 [1] is 6.03; with Rat fibroblasts (CREF) (mean of runs), 6.04; in the assay with Rat fibroblasts (CREF) (setting [3]), 6.10; in the assay on Rat fibroblasts (CREF) (setting [4]), 5.99; in the assay on PEG-3 [2] (setting [3]), 5.90; in the assay on PEG-3 [2] (setting [4]), 6.23.

Turning to `OCCNc1c2ccccc2nc2ccccc12`, the pIC50 on PEG-3 [1] was 5.05; in the assay with Rat fibroblasts (CREF) (mean of runs) it was 6.11; in the assay on Rat fibroblasts (CREF) (setting [3]) it was less than 4.10; in the assay with Rat fibroblasts (CREF) (setting [4]), 6.11; in the assay with PEG-3 [2] (setting [3]), 4.99; in the assay with PEG-3 [2] (setting [4]), 5.11.

On to `COc1cc(SC)ccc1C(=O)Nc1ncc(C)s1`, for which the negative logarithm of the IC50 (pIC50) was 5.41 on PEG-3 [1]; 5.71 in the assay on Rat fibroblasts (CREF) (mean of runs); 5.80 in the assay on Rat fibroblasts (CREF) (setting [3]); 5.64 in the assay on Rat fibroblasts (CREF) (setting [4]); 5.52 in the assay with PEG-3 [2] (setting [3]); 5.32 in the assay on PEG-3 [2] (setting [4]).

With `O=C(CCl)Nc1ccccc1Sc1ccc(Cl)cc1`, the pIC50 is 5.00 at PEG-3 [1]; 5.09 in the assay with Rat fibroblasts (CREF) (mean of runs); 5.09 in the assay on Rat fibroblasts (CREF) (setting [3]); 5.09 in the assay with Rat fibroblasts (CREF) (setting [4]); 4.88 with PEG-3 [2] (setting [3]); 5.15 in the assay on PEG-3 [2] (setting [4]).

On to `Cc1cc(NC(c2cccnc2)c2ccc3cccnc3c2O)no1` (configuration not stated), for which the pIC50 on PEG-3 [1] was 5.21; in the assay on Rat fibroblasts (CREF) (mean of runs) it was 5.24; in the assay with Rat fibroblasts (CREF) (setting [3]) it was 5.25; in the assay on Rat fibroblasts (CREF) (setting [4]), 5.24; with PEG-3 [2] (setting [3]) it was 5.14; in the assay on PEG-3 [2] (setting [4]) it was 5.30.

Regarding `O=C1C(Cl)=C(Nc2ccccc2)C(=O)c2ccccc21`, the pIC50 at PEG-3 [1] was 5.14; in the assay with Rat fibroblasts (CREF) (mean of runs), 5.15; with Rat fibroblasts (CREF) (setting [3]), 5.35; in the assay on Rat fibroblasts (CREF) (setting [4]), 5.01; in the assay on PEG-3 [2] (setting [3]), 4.90; in the assay on PEG-3 [2] (setting [4]) it was 5.72.

Consider `COc1ccccc1C(=O)Nc1nc2ccccc2[nH]1`, for which the pIC50 at PEG-3 [1] is 6.27; with Rat fibroblasts (CREF) (mean of runs) it was 6.55; in the assay with Rat fibroblasts (CREF) (setting [3]), 6.65; in the assay with Rat fibroblasts (CREF) (setting [4]) it was 6.47; in the assay on PEG-3 [2] (setting [3]), 6.15; in the assay with PEG-3 [2] (setting [4]), 6.44.

As for `COCCn1c(C)cc(C(=O)COC(=O)c2cccc(O)c2)c1C`, the negative-log IC50 (pIC50) is 4.97 at PEG-3 [1]; 6.21 with Rat fibroblasts (CREF) (mean of runs); 6.33 in the assay with Rat fibroblasts (CREF) (setting [3]); 6.12 with Rat fibroblasts (CREF) (setting [4]); 4.79 in the assay on PEG-3 [2] (setting [3]); 5.26 with PEG-3 [2] (setting [4]).

Turning to `CN(C)c1ccc(/C=C(\C#N)c2ccccn2)cc1`, the pIC50 is 5.36 on PEG-3 [1]; 6.19 in the assay with Rat fibroblasts (CREF) (mean of runs); 6.27 with Rat fibroblasts (CREF) (setting [3]); 6.13 in the assay with Rat fibroblasts (CREF) (setting [4]); 5.37 in the assay on PEG-3 [2] (setting [3]); 5.36 in the assay with PEG-3 [2] (setting [4]).

For the compound `CC(C)Cc1ccc(C(C)C(N)=NCCc2ccccc2)cc1` (configuration not stated), the pIC50 at PEG-3 [1] was 5.01; in the assay with Rat fibroblasts (CREF) (mean of runs) it was 4.88; in the assay with Rat fibroblasts (CREF) (setting [3]) it was 4.82; in the assay with Rat fibroblasts (CREF) (setting [4]) it was 4.93; in the assay with PEG-3 [2] (setting [3]), 4.91; with PEG-3 [2] (setting [4]) it was 5.14.

In the case of `COc1ccc(S(=O)(=O)/N=C2\C=C(Nc3ccc(O)cc3)C(=O)c3ccccc32)cc1`, the pIC50 at PEG-3 [1] was 5.59; with Rat fibroblasts (CREF) (mean of runs) it was 5.79; in the assay on Rat fibroblasts (CREF) (setting [3]) it was 5.86; with Rat fibroblasts (CREF) (setting [4]), 5.72; in the assay on PEG-3 [2] (setting [3]), 5.60; in the assay with PEG-3 [2] (setting [4]), 5.58.

On to `COc1ccc(/C=C/c2nc3ccccc3n2C)cc1`, for which the pIC50 is 5.72 on PEG-3 [1]; 5.46 with Rat fibroblasts (CREF) (mean of runs); 5.47 in the assay with Rat fibroblasts (CREF) (setting [3]); 5.46 in the assay on Rat fibroblasts (CREF) (setting [4]); 5.89 with PEG-3 [2] (setting [3]); 5.59 in the assay on PEG-3 [2] (setting [4]).
